# Reference: PMC5560554, “Targeting of CDK9 with indirubin 3’-monoxime safely and durably reduces HIV viremia in chronically infected humanized mice” (PLoS ONE, 2017)
# Where two headings read alike, the source gives them in different places.
# Tested on: HIV-1 NL4-3
# Experiment: Drug susceptibility assay in PHA-activated PBMCs (HIV p24 ELISA day 7)
# Assay type: cell-based
# Conditions: for decrease of ART EC50 value at 1 μM IM: HIV-1 NL4-3 in PBMCs, EC50 without IM vs with 1 μM IM; for EC50: Human immunodeficiency virus 1, NL43, PBMC, 168 h, HIV NL4-3 in PBMCs, p24 day 7, (95% CI) in cell; for P24: PBMCs, NL4-3, day 7
# Method: The ARTs tenofovir, raltegravir and indinavir were obtained from the NIH AIDS Research and Reference Reagent Program (Gaithersburg, MD). Drug susceptibility assays were performed in PBMCs as previously. Briefly, donor PBMCs were activated by culture with phytohemagglutinin (PHA) for 3 days. Activated PBMCs were infected with HIV (M.O.I of 0.001) for 2 hours in the absence of IM or ARTs, washed to remove non-adsorbed virus, and plated in culture medium containing IL-2 and various dilutions of IM and ARTs alone and in combination. On day 3, fresh medium with fresh drug was added to the cultures. On day 7, cultures were evaluated for HIV production by measuring HIV p24 levels in the culture supernatants by ELISA (PerkinElmer Life Sciences, Inc., Boston, Massachusetts). Data were normalized to p24 levels in drug untreated controls (100%) and EC50 values determined by fitting the data to sigmoidal dose-response (variable slope) curves using GraphPad Prism 5.0 software.
# A potential use of CDK9 inhibitor for the treatment of HIV will probably be in combination with ARTs from other classes. We thus evaluated the antiviral interaction between IM and ARTs from the NRTI, integrase and protease inhibitor classes in PBMCs infectivity assays in vitro. We used the virus strain HIV-1 NL4-3 to ensure a robust viral replication in the assays. Although HIV-1 NL4-3 differs from HIV-1 BaL in usage of coreceptor for cell entry, it is expected to have similar sensitivity to the tested ARTs. […] These enhancements of ART potencies by IM are consistent with targeting of different steps of the HIV cycle by IM and the tested ARTs.
# [1] = read-out: Geometric mean ART EC50, + 1μM IM
# [2] = read-out: Geometric mean ART EC50, No IM
structure (smiles),measurement,setting,value
"Cc1nnc(C(=O)NC(C)(C)c2nc(C(=O)NCc3ccc(F)cc3)c(O)c(=O)n2C)o1 [RAL, raltegravir]",decrease of ART EC50 value at 1 μM IM,,3.3 fold
same,EC50,[1],2.12 nM
same,EC50,[2],6.98 nM
same,P24,"RAL 0.05 nM, + IM",9.50 ng/mL
same,P24,"RAL 0.05 nM, No IM",27.0 ng/mL
same,P24,"RAL 0.15 nM, + IM",6.00 ng/mL
same,P24,"RAL 0.15 nM, No IM",23.0 ng/mL
same,P24,"RAL 0.5 nM, + IM",6.50 ng/mL
same,P24,"RAL 0.5 nM, No IM",27.0 ng/mL
same,P24,"RAL 1.5 nM, + IM",5.00 ng/mL
same,P24,"RAL 1.5 nM, No IM",26.0 ng/mL
same,P24,"RAL 5 nM, + IM",2.30 ng/mL
same,P24,"RAL 5 nM, No IM",17.0 ng/mL
same,P24,"RAL 15 nM, + IM",1.10 ng/mL
same,P24,"RAL 15 nM, No IM",2.8 ng/mL
same,P24,"RAL 45 nM, + IM",0.01 ng/mL
same,P24,"RAL 45 nM, No IM",0.6 ng/mL
"C[C@H](Cn1cnc2c(N)ncnc21)OCP(=O)(O)O [TDF, tenofovir]",decrease of ART EC50 value at 1 μM IM,,3 fold
same,EC50,[1],190 nM
same,EC50,[2],600 nM
same,P24,"TDF 0.01 µM, + IM",10.0 ng/mL
same,P24,"TDF 0.01 µM, No IM",63.0 ng/mL
same,P24,"TDF 0.03 µM, + IM",9.0 ng/mL
same,P24,"TDF 0.03 µM, No IM",61.0 ng/mL
same,P24,"TDF 0.1 µM, + IM",6.6 ng/mL
same,P24,"TDF 0.1 µM, No IM",48.0 ng/mL
same,P24,"TDF 0.3 µM, + IM",3.8 ng/mL
same,P24,"TDF 0.3 µM, No IM",35.0 ng/mL
same,P24,"TDF 1 µM, + IM",1.7 ng/mL
same,P24,"TDF 1 µM, No IM",17.0 ng/mL
same,P24,"TDF 3 µM, + IM",0.7 ng/mL
same,P24,"TDF 3 µM, No IM",4.0 ng/mL
same,P24,"TDF 10 µM, + IM",0.3 ng/mL
same,P24,"TDF 10 µM, No IM",0.6 ng/mL
"CC(C)(C)NC(=O)[C@@H]1CN(Cc2cccnc2)CCN1C[C@@H](O)C[C@@H](Cc1ccccc1)C(=O)N[C@H]1c2ccccc2C[C@H]1O [IND, indinavir]",decrease of ART EC50 value at 1 μM IM,,2.2 fold
same,EC50,"+ 1μM IM, read-out: Geometric mean ART EC50",3.55 nM
same,EC50,"No IM, read-out: Geometric mean ART EC50",7.74 nM
same,P24,"IND 1.8 nM, + IM",2.00 ng/mL
same,P24,"IND 1.8 nM, No IM",41.00 ng/mL
same,P24,"IND 5.5 nM, + IM",2.30 ng/mL
same,P24,"IND 5.5 nM, No IM",37.00 ng/mL
same,P24,"IND 16.6 nM, + IM",0.70 ng/mL
same,P24,"IND 16.6 nM, No IM",17.00 ng/mL
same,P24,"IND 50 nM, + IM",0.01 ng/mL
same,P24,"IND 50 nM, No IM",0.01 ng/mL
same,P24,"IND 150 nM, + IM",0.01 ng/mL
same,P24,"IND 150 nM, No IM",0.01 ng/mL
